Numbering of substitutions follows the chain as printed. Names and notes keep the numbering of the source. Values joined by “and” are separate entries in the source; they are usually repeats but may differ in a detail not shown here. Equal values may be shown once.
B1: Ima2p: isomaltase from S. cerevisiae encoded by IMA2/YOL157C, His-tagged, purified (protein, UniProt Q08295 1-589, looked up)
Oligo-1,6-glucosidase IMA2: MTISSAHPETEPKWWKEATIYQIYPASFKDSNNDGWGDMKGIASKLEYIKELGADAIWISPFYDSPQDDMGYDIANYEKVWPTYGTNEDCFALIEKTHKLGMKFITDLVINHCSSEHEWFKESRSSKTNPKRDWFFWRPPKGYDAEGKPIPPNNWRSYFGGSAWTFDEKTQEFYLRLFCSTQPDLNWENEDCRKAIYESAVGYWLDHGVDGFRIDVGSLYSKVAGLPDAPVIDENSKWQPSDPFTMNGPRIHEFHQEMNKFIRNRVKDGREIMTVGEMQHATDETKRLYTSASRHELSELFNFSHTDVGTSPKFRQNLIPYELKDWKVALAELFRYVNGTDCWSTIYLENHDQPRSITRFGDDSPKNRVISGKLLSVLLVSLSGTLYVYQGQELGEINFKNWPIEKYEDVEVRNNYDAIKEEHGENSKEMKRFLEAIALISRDHARTPMQWSREEPNAGFSGPNAKPWFYLNESFREGINAEDESKDPNSVLNFWKEALRFRKAHKDITVYGYDFEFIDLDNKKLFSFTKKYDNKTLFAALNFSSDSIDFTIPNNSSSFKLEFGNYPRSEVDASSRTLKPWEGRIYISE
modifications: His tag
B2: Ima3p: isomaltase from S. cerevisiae encoded by IMA3/YIL172C (identical IMA4), His-tagged, purified (protein, UniProt P0CW41 1-589, looked up)
Oligo-1,6-glucosidase IMA4: B1 Oligo-1,6-glucosidase IMA2 with A54T, P240L, Q279R
modifications: His tag
B3: Ima3p_L240P: Ima3p variant with L240P mutation (protein, UniProt P0CW40 1-589, looked up, variant L240P)
Oligo-1,6-glucosidase IMA3: B1 Oligo-1,6-glucosidase IMA2 with A54T, Q279R
B4: Ima1p: isomaltase from S. cerevisiae encoded by IMA1/YGR287C, His-tagged, purified (protein, UniProt P53051 2-589, looked up)
Oligo-1,6-glucosidase IMA1: TISSAHPETEPKWWKEATFYQIYPASFKDSNDDGWGDMKGIASKLEYIKELGADAIWISPFYDSPQDDMGYDIANYEKVWPTYGTNEDCFALIEKTHKLGMKFITDLVINHCSSEHEWFKESRSSKTNPKRDWFFWRPPKGYDAEGKPIPPNNWKSYFGGSAWTFDEKTQEFYLRLFCSTQPDLNWENEDCRKAIYESAVGYWLDHGVDGFRIDVGSLYSKVVGLPDAPVVDKNSTWQSSDPYTLNGPRIHEFHQEMNQFIRNRVKDGREIMTVGEMQHASDETKRLYTSASRHELSELFNFSHTDVGTSPLFRYNLVPFELKDWKIALAELFRYINGTDCWSTIYLENHDQPRSITRFGDDSPKNRVISGKLLSVLLSALTGTLYVYQGQELGQINFKNWPVEKYEDVEIRNNYNAIKEEHGENSEEMKKFLEAIALISRDHARTPMQWSREEPNAGFSGPSAKPWFYLNDSFREGINVEDEIKDPNSVLNFWKEALKFRKAHKDITVYGYDFEFIDLDNKKLFSFTKKYNNKTLFAALNFSSDATDFKIPNDDSSFKLEFGNYPKKEVDASSRTLKPWEGRIYISE
modifications: His tag

Legend:
Ima1p = Ima1p (Saccharomyces cerevisiae, UniProt P53051); assay: Substrate specificity of purified isomaltase; assay type: biochemical; conditions: 100 mM substrate (pNPG 5 mM), pH 7, 30 °C; for Specific activities: citrate–potassium phosphate buffer
Ima2p = Ima2p (Saccharomyces cerevisiae, UniProt Q08295); assay: Substrate specificity of purified isomaltase; assay type: biochemical; conditions: 100 mM substrate (pNPG 5 mM), pH 7, 30 °C; for Specific activities: citrate–potassium phosphate buffer
Ima3p = Ima3p (Saccharomyces cerevisiae, UniProt P0CW40); assay: Substrate specificity of purified isomaltase; assay type: biochemical; conditions: 100 mM substrate (pNPG 5 mM), pH 7, 30 °C; for Specific activities: citrate–potassium phosphate buffer
Ima5p = biological target: T1, Ima5p (Saccharomyces cerevisiae, UniProt P40884); assay: Substrate specificity of purified isomaltase; assay type: biochemical; conditions: 100 mM substrate (pNPG 5 mM), pH 7, 30 °C; for Specific activities: citrate–potassium phosphate buffer
T1 sequence (P40884 1-581): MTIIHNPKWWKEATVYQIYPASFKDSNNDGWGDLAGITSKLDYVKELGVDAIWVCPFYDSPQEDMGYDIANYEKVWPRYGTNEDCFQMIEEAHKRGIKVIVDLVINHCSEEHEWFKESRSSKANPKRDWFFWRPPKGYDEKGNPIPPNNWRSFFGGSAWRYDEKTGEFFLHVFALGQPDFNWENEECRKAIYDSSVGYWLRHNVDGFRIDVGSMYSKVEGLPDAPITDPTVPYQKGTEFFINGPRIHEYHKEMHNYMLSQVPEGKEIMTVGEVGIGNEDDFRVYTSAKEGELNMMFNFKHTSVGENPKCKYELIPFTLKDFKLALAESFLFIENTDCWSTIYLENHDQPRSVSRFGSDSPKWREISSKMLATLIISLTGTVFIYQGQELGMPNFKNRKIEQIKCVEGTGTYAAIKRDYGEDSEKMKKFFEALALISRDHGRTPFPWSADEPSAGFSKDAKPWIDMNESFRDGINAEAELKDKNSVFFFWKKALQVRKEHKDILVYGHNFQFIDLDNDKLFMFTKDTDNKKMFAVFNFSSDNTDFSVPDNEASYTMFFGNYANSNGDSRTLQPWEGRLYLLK

[1] = Thermostability assay: time-dependent heat inactivation, half-life; assay type: biochemical, Saccharomyces cerevisiae; conditions: pNPG 5 mM, mean ± 2 SEM
[2] = Melting temperature by differential scanning fluorimetry; assay type: physicochemical, Saccharomyces cerevisiae; conditions: for Tm: mean ± 2 SEM; for decrease of Tm on increase by one pH unit (pH 8): pH 7 to pH 8

Ima3p, sequence (P0CW40 whole entry): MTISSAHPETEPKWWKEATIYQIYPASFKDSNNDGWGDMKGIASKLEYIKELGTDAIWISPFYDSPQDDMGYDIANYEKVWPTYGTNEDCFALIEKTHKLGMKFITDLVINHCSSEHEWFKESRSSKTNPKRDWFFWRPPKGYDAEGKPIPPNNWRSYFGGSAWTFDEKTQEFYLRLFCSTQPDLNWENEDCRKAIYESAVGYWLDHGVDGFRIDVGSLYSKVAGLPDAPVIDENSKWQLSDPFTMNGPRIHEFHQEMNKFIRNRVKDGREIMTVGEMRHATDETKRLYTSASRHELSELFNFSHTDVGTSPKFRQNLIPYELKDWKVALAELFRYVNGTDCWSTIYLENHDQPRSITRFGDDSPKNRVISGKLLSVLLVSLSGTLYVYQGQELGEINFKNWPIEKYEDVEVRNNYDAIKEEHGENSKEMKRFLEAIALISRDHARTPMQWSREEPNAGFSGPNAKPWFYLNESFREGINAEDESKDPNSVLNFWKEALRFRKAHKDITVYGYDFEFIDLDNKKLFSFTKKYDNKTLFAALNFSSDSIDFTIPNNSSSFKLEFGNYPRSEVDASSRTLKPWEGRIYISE
Ima1p, sequence (P53051 whole entry): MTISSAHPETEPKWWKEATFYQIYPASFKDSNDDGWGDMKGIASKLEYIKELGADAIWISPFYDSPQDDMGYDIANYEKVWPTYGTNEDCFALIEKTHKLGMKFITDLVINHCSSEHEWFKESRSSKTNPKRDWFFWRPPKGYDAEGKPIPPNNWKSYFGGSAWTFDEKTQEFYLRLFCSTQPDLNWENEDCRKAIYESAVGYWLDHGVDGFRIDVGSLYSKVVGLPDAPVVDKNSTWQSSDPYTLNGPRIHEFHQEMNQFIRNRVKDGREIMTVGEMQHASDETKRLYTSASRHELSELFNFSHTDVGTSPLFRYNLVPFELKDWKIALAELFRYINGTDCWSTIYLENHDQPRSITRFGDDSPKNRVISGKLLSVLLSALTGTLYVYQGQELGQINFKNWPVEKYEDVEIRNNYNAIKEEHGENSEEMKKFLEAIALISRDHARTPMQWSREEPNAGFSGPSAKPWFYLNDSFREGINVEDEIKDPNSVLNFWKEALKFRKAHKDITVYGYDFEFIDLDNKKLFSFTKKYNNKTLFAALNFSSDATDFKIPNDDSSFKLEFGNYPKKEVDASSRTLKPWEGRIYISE

| Molecule | Specific activities (Ima1p) [µmol/min/mg] | relative activity, velocity on isomaltose set to 100 (Ima1p) [%] | Specific activities (Ima2p) [µmol/min/mg] | relative activity, velocity on isomaltose set to 100 (Ima2p) [%] | Specific activities (Ima3p) [µmol/min/mg] | Specific activities (Ima5p) [µmol/min/mg] | relative activity, velocity on isomaltose set to 100 (Ima5p) [%] | t1/2 ([1]; 37 °C) [min] | t1/2 ([1]; 40 °C) [min] | Tm ([2]; pH 7, DSF) | other results |
| --- | --- | --- | --- | --- | --- | --- | --- | --- | --- | --- | --- |
| OC[C@H]1O[C@H](O[C@@H]2[C@@H](O)[C@H](O)[C@@H](CO)O[C@@H]2O)[C@H](O)[C@@H](O)[C@@H]1O [Kojibiose, O-α-D-Glucosyl-(1→2)-α-D-glucose] | 7.7 | 13 | 6.9 | 13 | 0 | 2.5 | 4 | – | – | – | – |
| OC[C@H]1O[C@H](O[C@H]2[C@H](O)[C@@H](O)[C@@H](O[C@H]3[C@H](O)[C@@H](O)C(O)O[C@@H]3CO)O[C@@H]2CO)[C@H](O)[C@@H](O)[C@@H]1O (stereo partly drawn) [Maltotriose, O-α-D-Glucosyl-(1→4)-α-D-glucosyl-(1→4)-D-glucose] | 3.5 | 6 | 3.4 | 6 | 0 | 3.4 | 5 | – | – | – | relative activity, velocity on isomaltose set to 100 (Ima1p; listed as maltotriose): approx. 5%; relative activity, velocity on isomaltose set to 100 (Ima2p; listed as maltotriose): approx. 5%; relative activity, velocity on isomaltose set to 100 (Ima5p; listed as maltotriose): approx. 5% |
| OC[C@H]1O[C@H](O[C@@H]2[C@@H](CO)OC(O)(CO)[C@H]2O)[C@H](O)[C@@H](O)[C@@H]1O (stereo partly drawn) [Maltulose, O-α-D-Glucosyl-(1→4)-D-fructose] | 0 | – | 0.53 | 1 | 0 | 0.36 | 1 | – | – | – | – |
| OC[C@H]1O[C@@](CO)(O[C@H]2O[C@H](CO)[C@@H](O)[C@H](O)[C@H]2O)[C@@H](O[C@H]2O[C@H](CO)[C@@H](O)[C@H](O)[C@H]2O)[C@@H]1O [Melezitose, O-α-D-Glucosyl-(1→3)-β-D-fructosyl-(2→1)-D-glucose] | 0 | – | 0 | – | 0 | 0 | – | – | – | – | – |
| OC[C@H]1O[C@H](O[C@@H]2[C@@H](O)[C@@H](O)O[C@H](CO)[C@H]2O)[C@H](O)[C@@H](O)[C@@H]1O [Nigerose, O-α-D-Glucosyl-(1→3)-α-D-glucose] | 6.5 | 11 | 6.8 | 13 | 2.5 | 4.2 | 6 | – | – | – | relative activity, velocity on isomaltose set to 100 (Ima3p): 35% |
| OC[C@H]1O[C@H](O[C@H]2O[C@H](CO)[C@@H](O)[C@H](O)[C@H]2O)[C@H](O)[C@@H](O)[C@@H]1O [Trehalose, O-α-D-Glucosyl-(1→1)-α-D-glucose] | 0 | – | 0 | – | 0 | 0 | – | – | – | – | – |
| O=C(CO)[C@@H](O[C@H]1O[C@H](CO)[C@@H](O)[C@H](O)[C@H]1O)[C@H](O)[C@H](O)CO [Turanose, O-α-D-Glucosyl-(1→3)-D-fructose] | 4.3 | 7 | 3.5 | 6 | 1.8 | 1.2 | 2 | – | – | – | relative activity, velocity on isomaltose set to 100 (Ima3p): 25% |
| B1 | – | – | – | – | – | – | – | 27.4 ± 1.6 | 18.5 ± 1.6 | 46.2 ± 0.8 °C | t1/2 ([1]; 42 °C): 11.2 ± 0.7 min; Tm ([2]; pH 6, DSF): 55.1 ± 0.2 °C; decrease of Tm on increase by one pH unit (pH 8) [2]: 13 °C; Tm ([2]; pH 8, DSF): 33.2 ± 0.6 °C |
| B2 | – | – | – | – | – | – | – | 23.2 ± 1.4 | 7.6 ± 0.9 | 38.8 ± 0.5 °C | t1/2 ([1]; 42 °C): 2.9 ± 0.5 min; Tm ([2]; pH 6, DSF): 47.0 ± 0.3 °C; Tm ([2]; pH 8, DSF): 29.9 ± 0.3 °C |
| B3 | – | – | – | – | – | – | – | 26.5 ± 2.2 | 16.2 ± 1.8 | 39.7 °C and 39.7 ± 0.4 °C | t1/2 ([1]; 42 °C): 8.5 ± 1.3 min; increase of Tm relative to Ima3p ([2]; pH 7): 1 °C |
| B4 | – | – | – | – | – | – | – | 26.1 ± 1.7 | 17.6 ± 1.7 | 46.6 ± 0.7 °C | Tm ([2]; pH 6, DSF): 55.5 ± 0.6 °C; decrease of Tm on increase by one pH unit (pH 8) [2]: 5 °C; Tm ([2]; pH 8, DSF): 41.6 ± 0.2 °C |

— paper PMC3953731 (FEBS Open Bio, 2014)
